Measurements published in patent US12187684B2, “Benzimidazole derivatives as modulators of retinoid-related orphan receptor gamma (RORγ) and pharmaceutical use thereof” (Jiangsu Hengrui Medicine Co., Ltd., priority 2018, dated 2025).

Columns and labels:
RORγ LBD-GST tagged = biological target: T1, RORγ LBD-GST tagged (Homo sapiens, UniProt P51449); test: LanthaScreen TR-FRET RORγ coactivator assay; format: biochemical; settings: Fluorescein-D22 coactivator peptide, 1 hour room temperature
T1 construct: RORγ LBD-GST tagged (Cat No. RORC-114H, Creative Biomart); purchased Creative Biomart RORC-114H
T1 sequence (P51449 269-508 limits assumed): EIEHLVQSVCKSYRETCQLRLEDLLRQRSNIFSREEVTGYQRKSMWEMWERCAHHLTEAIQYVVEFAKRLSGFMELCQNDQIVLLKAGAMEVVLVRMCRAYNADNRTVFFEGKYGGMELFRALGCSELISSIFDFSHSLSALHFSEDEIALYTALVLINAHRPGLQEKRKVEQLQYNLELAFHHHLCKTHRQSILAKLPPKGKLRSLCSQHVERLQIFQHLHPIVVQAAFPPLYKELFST
Method in brief: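 GST-tagged RORγ LBD (25 ng/reaction) was incubated in coregulator buffer D with 5 mM DTT and compound (top 3 μM, 7-fold steps, 7 doses), then with a mix containing 0.6 μM fluorescein-D22 peptide and 8 nM Tb anti-GST antibody. After 1 h at room temperature in the dark, 520/495 nm TR-FRET was read. IC50 came from log concentration versus percent inhibition.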

[1] = test system: IL-17 production, human PBMC cells; test: IL-17 production assay using human PBMC; format: cell-based; settings: Homo sapiens, PBMC, 72 h, human PBMC stimulated by cytostim for 3 days, IL-17 ELISA of supernatant
Method in brief: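 Cryopreserved human PBMCs, 1×10^5 per well in TexMACS, were treated with compound or vehicle (<0.5% DMSO) and stimulated with Cytostim (10 μL/mL) for 3 days at 37 °C. Supernatant IL-17 was measured by ELISA. IC50 was taken from concentration versus percent inhibition.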

Row | IC50 (RORγ LBD-GST tagged) [µM] | Structure (SMILES) | IC50 [1] [µM]
1 | 0.007 | O=S(=O)(CC1CC1)c1ccc(C(CCO)c2nc3cc(Cl)c(N4CCC(F)(F)CC4)c(Cl)c3[nH]2)cc1 (centres unmarked) [Example 157, 3-(4-((cyclopropylmethyl)sulfonyl)phenyl)-3-(5,7-dichloro-6-(4,4-difluoropiperidin-1-yl)-1H-benzo[d]imidazol-2-yl)propan-1-ol] | 0.022
2 | 0.005 | NC(=O)CC(c1ccc(S(=O)(=O)CC2CC2)cc1)c1nc2cc(Cl)c(-c3ccccc3OC(F)F)c(Cl)c2[nH]1 (centres unmarked) [Example 158, 3-(4-((cyclopropylmethyl)sulfonyl)phenyl)-3-(5,7-dichloro-6-(2-(difluoromethoxy)phenyl)-1H-benzo[d]imidazol-2-yl)propanamide] | 0.187
3 | 0.005 | O=S(=O)(CC1CC1)c1ccc(C(CCO)c2nc3cc(Cl)c(-c4ccccc4OC(F)F)c(Cl)c3[nH]2)cc1 (centres unmarked) [Example 159, 3-(4-((cyclopropylmethyl)sulfonyl)phenyl)-3-(5,7-dichloro-6-(2-(difluoromethoxy)phenyl)-1H-benzo[d]imidazol-2-yl)propan-1-ol] | 0.01
4 | 0.71 | O=S(=O)(CC1CC1)c1ccc(C(CCN2CCOCC2)c2nc3cc(Cl)c(N4CCC(F)(F)CC4)c(Cl)c3[nH]2)cc1 (centres unmarked) [Example 170, 4-(3-(4-((cyclopropylmethyl)sulfonyl)phenyl)-3-(5,7-dichloro-6-(4,4-difluoropiperidin-1-yl)-1H-benzo[d]imidazol-2-yl)propyl)morpholine] | 0.43
